Experimental data published in PMC10350920, “Development of a 2,4-Diaminothiazole Series for the Treatment of Human African Trypanosomiasis Highlights the Importance of Static–Cidal Screening of Analogues” (Journal of Medicinal Chemistry, 2023).
pEC50: −log10 of the molar value. Like-named read-outs stand apart in the source and are kept apart here.

What was measured:
[1] = test system: BSF T. b. brucei “single marker” S427; assay: Drug sensitivity assay with bloodstream-form T. brucei; type: cell-based; settings: for pEC50: mean values, number of replicates in parentheses; for reduction (loss, drop off) in potency against T. brucei relative to parent analogue: SAR comparison
Description: (§1) Drug sensitivity assays with BSF T. b. brucei “single marker” S427 and human MRC-5 fibroblasts were conducted as previously described.[43]

human MRC-5 fibroblasts = assay: Mammalian cell counter screen (MRC-5); type: cell-based; settings: for SI: selectivity index (EC50 MRC5/EC50 T. brucei)
Description: as §1

[2] = Mammalian cell counter screen (MRC-5); type: cell-based, human; settings: human, MRC-5 fibroblasts; mean values; number of replicates in parentheses
Description: as §1

[3] = Mouse liver microsomal intrinsic clearance; type: in vitro ADME
Description: Test compounds (0.5 μM) were incubated with female CD1 mouse liver microsomes (Xenotech LLC; 0.5 mg mL^–1 50 mM potassium phosphate buffer, pH 7.4), and the reaction started with the addition of excess NADPH (8 mg mL^–1 50 mM potassium phosphate buffer, pH 7.4). Immediately, at 0 min, and then at 3, 6, 9, 15, and 30 min, an aliquot (50 μL) of the incubation mixture was removed and mixed with acetonitrile (100 μL) to stop the reaction. The internal standard was added to all samples, the samples were centrifuged to sediment the precipitated protein, and the plates were then sealed prior to UPLC–MS/MS analysis using a Quattro Premier XE (Waters Corporation, USA). XLfit (IDBS, UK) was used to calculate the exponential decay and consequently the rate constant (k) from the ratio of the peak area of the test compound to the internal standard at each time point. The rate of intrinsic clearance (CLint) of each test compound was then calculated using the following calculation [drawing 3] where V (mL mg^–1 protein) is the incubation volume mg^–1 protein added and the microsomal protein yield is taken as 52.5 mg protein g^–1 liver. Verapamil (0.5 μM) was used as a positive control to confirm acceptable assay performance.

[4] = Rat microsomal intrinsic clearance; type: in vitro ADME; settings: second value of mouse/rat cell

## CC(C)(F)CC(=O)c1sc(Nc2ccc(F)c(F)c2)nc1N [Compound 41, 1-(4-Amino-2-((3,4-difluorophenyl)amino)thiazol-5-yl)-3-fluoro-3-methylbutan-1-one]
[1]; Trypanosoma brucei
  pEC50: 6.25
Human MRC-5 fibroblasts
  SI: 82
[2]
  pEC50: 4.34

## 1-(4-Amino-2-((3,4-difluorophenyl)amino)thiazol-5-yl)-2-((2S,6R)-2,6-dimethylmorpholino)ethanone [Compound 63]
[1]
  pEC50: 7.30
Human MRC-5 fibroblasts; mean values, number of replicates in parentheses, read-out: MRC-5 EC50
  pEC50: < 4.30
Human MRC-5 fibroblasts
  SI: 1000
[3]
  CLint (mouse): 8.1 mL·min/g
[4]
  CLint (rat): 4.9 mL·min/g

## Nc1nc(Nc2ccc(F)c(F)c2)sc1C(=O)COC(CF)CF [Compound 48, 1-(4-Amino-2-((3,4-difluorophenyl)amino)thiazol-5-yl)-2-((1,3-difluoropropan-2-yl)oxy)ethanone]
[1]; Trypanosoma brucei
  pEC50: 7.30
Human MRC-5 fibroblasts
  SI: 1000
[2]
  pEC50: < 4.30

## Nc1nc(Nc2ccc(F)c(F)c2)sc1C(=O)COC(C(F)(F)F)C(F)(F)F [Compound 49, 1-(4-Amino-2-((3,4-diflurorophenyl)amino)thiazol-5-yl)-2-(((1,1,1,3,3,3)-hexafluoropropan-2-yl)oxy)ethanone]
[1]; Trypanosoma brucei
  pEC50: 7.70
Human MRC-5 fibroblasts
  SI: 650
[2]
  pEC50: 4.89

## CC(OCC(=O)c1sc(Nc2ccc(C(F)(F)F)cc2)nc1N)C(F)(F)F (centres unmarked) [Compound 52, 1-(4-Amino-((4-(trifluoromethyl)phenyl)amino)thiazol-5-yl)-2-((1,1,1-trifluoropropan-2-yl)oxy)ethanone]
[1]
  reduction (loss, drop off) in potency against T. brucei relative to parent analogue: 10 fold
[1]; Trypanosoma brucei
  pEC50: 7.15
Human MRC-5 fibroblasts
  SI: 543
[2]
  pEC50: 4.42
[3]
  CLint (mouse): 2.3 mL·min/g
[4]
  CLint (rat): 0.5 mL·min/g

## CC(C)(C)OCC(=O)c1sc(Nc2ccc(F)c(F)c2)nc1N [Compound 43, 1-(4-Amino-2-((3,4-difluorophenyl)amino)thiazol-5-yl)-2-(tert-butoxy)ethanone]
[1]; Trypanosoma brucei
  pEC50: 7.00
Human MRC-5 fibroblasts
  SI: 500
[2]
  pEC50: < 4.30

## Cc1ccc(C(=O)c2sc(NC3CCCCC3)nc2N)cc1 [Compound 24, (4-Amino-2-(cyclohexylamino)thiazol-5-yl)(p-tolyl)methanone]
[1]; Trypanosoma brucei
  pEC50: 6.55
Human MRC-5 fibroblasts
  SI: >179
[2]
  pEC50: < 4.30

## O=C(c1cnc(NC2CCCCC2)s1)C1CCCCC1 [Compound 32, Cyclohexyl(2-(cyclohexylamino)thiazole-5-yl)methanone]
[1]
  reduction (loss, drop off) in potency against T. brucei relative to parent analogue: > 20 fold
[1]; Trypanosoma brucei
  pEC50: 4.74
Human MRC-5 fibroblasts
  SI: 3
[2]
  pEC50: 4.31
[3]
  CLint (mouse): 15 mL·min/g

## Nc1nc(NC2CCCCC2)sc1C(=O)c1cc(F)cc(F)c1 [Compound 31, (4-Amino-2-(cyclohexylamino)thiazol-5-yl)(3,5-difluorophenyl)methanone]
[1]; Trypanosoma brucei
  pEC50: 6.80
Human MRC-5 fibroblasts
  SI: 19
[2]
  pEC50: 5.51
[3]
  CLint (mouse): 3.6 mL·min/g

## Nc1nc(NC2CCCCC2)sc1C(=O)c1ccccc1C(F)(F)F [Compound 28]
[1]; Trypanosoma brucei
  pEC50: 6.41
Human MRC-5 fibroblasts
  SI: 5
[2]
  pEC50: 5.72
[3]
  CLint (mouse): 14 mL·min/g

## Nc1nc(Nc2ccc(F)c(F)c2)sc1C(=O)CN1CCOCC1 [Compound 62, 1-(4-Amino-2-((3,4-difluorophenyl)amino)thiazol-5-yl)-2-morpholinoethanone]
[1]; Trypanosoma brucei
  pEC50: 7.40
[2]
  pEC50: < 4.30
[3]
  CLint (mouse): 4.7 mL·min/g
[4]
  CLint (rat): 9 mL·min/g

## Nc1nc(NC2CCCCC2)sc1C(=O)C1CCCCC1 [Compound 20, (4-Amino-2-(cyclohexylamino)thiazol-5-yl) (cyclohexyl)methanone]
[1]; Trypanosoma brucei
  pEC50: 6.82
Human MRC-5 fibroblasts
  SI: 273
[2]
  pEC50: 4.39
[3]
  CLint (mouse): 8.9 mL·min/g

## CCOCC(=O)c1sc(Nc2ccc(F)c(F)c2)nc1N [Compound 44, 1-(4-Amino-2-((3,4-difluorophenyl)amino)thiazol-5-yl)-2-ethoxyethanone]
[1]; Trypanosoma brucei
  pEC50: 6.82
Human MRC-5 fibroblasts
  SI: 333
[2]
  pEC50: < 4.30

## Nc1nc(NC2CCCCC2)sc1C(=O)c1ccccc1F [Compound 27, (4-Amino-2-(cyclohexylamino)thiazol-5-yl)(2-fluorophenyl)methanone]
[1]; Trypanosoma brucei
  pEC50: 7.15
Human MRC-5 fibroblasts
  SI: 29
[3]
  CLint (mouse): 9.7 mL·min/g

## CC(C)OCCC(=O)c1sc(Nc2ccc(F)c(F)c2)nc1N [Compound 45, 1-(4-Amino-2-((3,4-difluorophenyl)amino)thiazol-5-yl)-3-isopropoxypropan-1-one]
[1]; Trypanosoma brucei
  pEC50: 5.59
Human MRC-5 fibroblasts
  SI: 19
[2]
  pEC50: < 4.30

## Nc1nc(NC2CCCCC2)sc1C(=O)c1ccc(F)cc1 [Compound 22, (4-Amino-2-(cyclohexylamino)thiazol-5-yl)(4-fluorophenyl)methanone]
[1]; Trypanosoma brucei
  pEC50: 7.30
Human MRC-5 fibroblasts
  SI: 420
[2]
  pEC50: 4.68
[3]
  CLint (mouse): 4.9 mL·min/g

## Nc1nc(NC2CCCCC2)sc1C(=O)c1ccc(C(F)(F)F)cc1 [Compound 23, (4-Amino-2-(cyclohexylamino)thiazol-5-yl)(4-(trifluoromethyl)phenyl)methanone]
[1]; Trypanosoma brucei
  pEC50: 6.18
Human MRC-5 fibroblasts
  SI: 56
[2]
  pEC50: 4.43
[3]
  CLint (mouse): 1.4 mL·min/g

## Nc1nc(NC2CCCCC2)sc1C(=O)c1c(Cl)cccc1Cl [Compound 21, (4-Amino-2-(cyclohexylamino)thiazol-5-yl)(2,6-dichlorophenyl)methanone]
[1]; Trypanosoma brucei
  pEC50: 6.85
Human MRC-5 fibroblasts
  SI: 34
[2]
  pEC50: 5.32
[3]
  CLint (mouse): 4.1 mL·min/g

## O=C(c1cnc(NC2CCCCC2)s1)c1c(F)cccc1F [Compound 33, (2-(Cyclohexylamino)thiazol-5-yl)(2,6-difluorophenyl)methanone]
[1]
  reduction (loss, drop off) in potency against T. brucei relative to parent analogue: > 20 fold
[1]; Trypanosoma brucei
  pEC50: 4.82
Human MRC-5 fibroblasts
  SI: 3
[2]
  pEC50: 4.33

## CC(C)(C)CC(=O)c1sc(Nc2ccc(F)c(F)c2)nc1N [Compound 40, 1-(4-Amino-2-((3,4-difluorophenyl)amino)thiazol-5-yl)-3,3-dimethylbutan-1-one]
[1]; Trypanosoma brucei
  pEC50: 6.82
Human MRC-5 fibroblasts
  SI: >333
[2]
  pEC50: < 4.30
[3]
  CLint (mouse): 4.6 mL·min/g

## CC(C)CC(=O)c1sc(Nc2ccc(F)cc2)nc1N [Compound 36, 1-(4-Amino-2-((4-fluorophenyl)amino)thiazol-5-yl)-3-methylbutan-1-one]
[1]; Trypanosoma brucei
  pEC50: 6.96
Human MRC-5 fibroblasts
  SI: >455
[2]
  pEC50: < 4.30
[3]
  CLint (mouse): 8.0 mL·min/g

## Nc1nc(NC2CCCCC2)sc1C(=O)c1ccc(F)cc1F [Compound 29, (4-Amino-2-(cyclohexylamino)thiazol-5-yl)(2,4-difluorophenyl)methanone]
[1]; Trypanosoma brucei
  pEC50: 7.30
Human MRC-5 fibroblasts
  SI: 128
[2]
  pEC50: 5.19
[3]
  CLint (mouse): 6.5 mL·min/g

## Nc1nc(NC2CCCCC2)sc1C(=O)c1ccc(F)c(F)c1 [Compound 30, (4-Amino-2-(cyclohexylamino)thiazol-5-yl)(3,4-difluorophenyl)methanone]
[1]; Trypanosoma brucei
  pEC50: 7.30
Human MRC-5 fibroblasts
  SI: 840
[2]
  pEC50: 4.38
[3]
  CLint (mouse): 12 mL·min/g

## COC(C)(C)CC(=O)c1sc(Nc2ccc(F)c(F)c2)nc1N [Compound 39, 1-(4-Amino-2-((3,4-difluorophenyl)amino)thiazol-5-yl)-3-methoxy-3-methylbutan-1-one]
[1]; Trypanosoma brucei
  pEC50: 6.68
Human MRC-5 fibroblasts
  SI: 238
[2]
  pEC50: < 4.30
[3]
  CLint (mouse): 6.1 mL·min/g

## Nc1nc(NC2CCCCC2)sc1C(=O)C1CCC1 [Compound 19, (4-Amino-2-(cyclohexylamino)thiazol-5-yl)cyclobutylmethanone]
[1]; Trypanosoma brucei
  pEC50: 6.43
[2]
  pEC50: 4.89
[3]
  CLint (mouse): 21 mL·min/g

## Nc1nc(NC2CCCCC2)sc1C(=O)c1ccncc1 [Compound 25, (4-Amino-2-(cyclohexylamino)thiazol-5-yl)(pyridine-4-yl)methanone]
[1]; Trypanosoma brucei
  pEC50: 6.34
Human MRC-5 fibroblasts
  SI: 41
[2]
  pEC50: 4.72
[3]
  CLint (mouse): 4.1 mL·min/g

## Nc1nc(Nc2ccccc2)sc1C(=O)c1ccc(F)cc1 [Compound 35, (4-Amino-2-(phenylamino)thiazol-5-yl)(4-fluorophenyl)methanone]
[1]; Trypanosoma brucei
  pEC50: 6.72
Human MRC-5 fibroblasts
  SI: >263
[2]
  pEC50: < 4.30
[3]
  CLint (mouse): 7.3 mL·min/g

## 1-(4-Amino-2-((3-(difluoromethoxy)phenyl)amino)thiazol-5-yl)-2-((1,1,1-trifluoropropan-2-yl)oxy)ethanone [Compound 54]
[1]
  pEC50: 7.70
Human MRC-5 fibroblasts
  pEC50: < 4.30
  SI: 2500

## COC(C)(C)C(=O)c1sc(NC2CCCCC2)nc1N [Compound 17, 1-(4-Amino-2-(cyclohexylamino)thiazol-5-yl)-2-methoxy-2-methylpropan-1-one]
[1]; Trypanosoma brucei
  pEC50: 5.72
Human MRC-5 fibroblasts
  SI: >26
[2]
  pEC50: < 4.30
[3]
  CLint (mouse): 3.8 mL·min/g
